# Columns and labels:
# D2 = biological target: T1, D2 (Homo sapiens, UniProt P14416); assay: NIMH PDSP radioligand binding, D2; conditions: radioligand [3H]N-methylspiperone, n=4
# T1 construct: purchased NIMH Psychoactive Drug Screening Program (PDSP)
# hBGT1 Q299L = biological target: T2, hBGT1 Q299L (Homo sapiens, UniProt P48065, Q299L); assay: [3H]GABA uptake at hBGT1 Q299L mutant in tsA201 cells; format: cell-based; conditions: data not shown
# T2 construct: expressed in transfected cells; host or cells: tsA201 (transient)
# T2 sequence (P48065 whole entry Q299L): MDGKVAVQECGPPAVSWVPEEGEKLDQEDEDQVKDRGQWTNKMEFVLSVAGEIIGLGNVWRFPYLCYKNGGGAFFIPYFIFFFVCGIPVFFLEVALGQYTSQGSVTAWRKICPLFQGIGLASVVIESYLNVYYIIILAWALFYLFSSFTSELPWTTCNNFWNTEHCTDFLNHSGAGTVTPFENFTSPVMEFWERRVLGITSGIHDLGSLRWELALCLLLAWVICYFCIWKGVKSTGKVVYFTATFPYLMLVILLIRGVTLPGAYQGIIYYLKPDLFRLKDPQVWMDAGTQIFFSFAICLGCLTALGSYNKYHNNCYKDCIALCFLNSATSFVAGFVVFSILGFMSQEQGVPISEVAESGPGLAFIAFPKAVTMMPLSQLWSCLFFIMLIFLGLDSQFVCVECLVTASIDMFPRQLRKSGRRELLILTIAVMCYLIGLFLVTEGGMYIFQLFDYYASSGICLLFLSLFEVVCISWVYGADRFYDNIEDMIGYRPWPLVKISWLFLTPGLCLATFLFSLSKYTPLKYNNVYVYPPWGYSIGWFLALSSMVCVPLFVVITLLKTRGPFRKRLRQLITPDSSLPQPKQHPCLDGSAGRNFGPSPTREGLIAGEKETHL
# Method: (§1) The HEK-293 and Flp-In CHO cell lines stably expressing mouse (m) and human (h) GATs, respectively, have been described previously and were cultured accordingly. The tsA201 cell line was used for transient expression while the MDCK II cell line express BGT1 endogenously. Both cell lines were cultured as described. tsA201 cells were transfected with DNA constructs (8 μg per 10 cm dish if not otherwise mentioned) using 40 μL PolyFect transfection reagent according to the manufacturer’s protocol (Qiagen, Venlo, Netherlands). The DNA constructs encoding hBGT1, hGAT1-3 [36], the mutated constructs hBGT1 Q299 and hGAT3 L314Q described previously, and hBGT Y453A were synthesized and sequence validated by Genscript (NJ, USA).
# (§2) The [^3H]GABA competition uptake assay was performed as previously described. A minor change, however, was introduced for uptake in MDCK II cells, in which 100 nM [^3H]GABA was used for a 15 min incubation period at 37 °C instead of 30 nM [^3H]GABA and 3 min incubation. Studies related to the inhibition curves with GABA and BPDBA at hBGT1 were obtained both with and without the presence of 10 μM ATP during the [^3H]GABA uptake assay.
# (§3) The [^3H]GABA uptake data was normalized to the percentage of total uptake in the individual experiments in the presence of the lowest compound concentration or no compound present. […]
# D3 = biological target: T3, D3 (Homo sapiens, UniProt P35462); assay: NIMH PDSP radioligand binding, D3; conditions: radioligand [3H]N-methylspiperone, n=4
# T3 construct: purchased NIMH Psychoactive Drug Screening Program (PDSP)
# T3 sequence (P35462 whole entry): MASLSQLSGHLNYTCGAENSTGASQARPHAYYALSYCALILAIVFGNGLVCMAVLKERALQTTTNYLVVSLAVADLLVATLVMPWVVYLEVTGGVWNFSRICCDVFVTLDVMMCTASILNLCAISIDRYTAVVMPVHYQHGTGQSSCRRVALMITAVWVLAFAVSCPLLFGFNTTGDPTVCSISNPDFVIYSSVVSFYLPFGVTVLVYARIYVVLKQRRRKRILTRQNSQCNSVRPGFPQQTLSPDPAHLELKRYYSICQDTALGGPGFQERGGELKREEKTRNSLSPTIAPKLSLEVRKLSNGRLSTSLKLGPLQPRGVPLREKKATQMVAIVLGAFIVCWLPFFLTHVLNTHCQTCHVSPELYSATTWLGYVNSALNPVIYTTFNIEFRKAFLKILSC
# D5 = biological target: T4, D5 (Homo sapiens, UniProt P21918); assay: NIMH PDSP radioligand binding, D5; conditions: radioligand [3H]SCH23390
# T4 construct: NIMH PDSP (screening service)
# T4 sequence (P21918 whole entry): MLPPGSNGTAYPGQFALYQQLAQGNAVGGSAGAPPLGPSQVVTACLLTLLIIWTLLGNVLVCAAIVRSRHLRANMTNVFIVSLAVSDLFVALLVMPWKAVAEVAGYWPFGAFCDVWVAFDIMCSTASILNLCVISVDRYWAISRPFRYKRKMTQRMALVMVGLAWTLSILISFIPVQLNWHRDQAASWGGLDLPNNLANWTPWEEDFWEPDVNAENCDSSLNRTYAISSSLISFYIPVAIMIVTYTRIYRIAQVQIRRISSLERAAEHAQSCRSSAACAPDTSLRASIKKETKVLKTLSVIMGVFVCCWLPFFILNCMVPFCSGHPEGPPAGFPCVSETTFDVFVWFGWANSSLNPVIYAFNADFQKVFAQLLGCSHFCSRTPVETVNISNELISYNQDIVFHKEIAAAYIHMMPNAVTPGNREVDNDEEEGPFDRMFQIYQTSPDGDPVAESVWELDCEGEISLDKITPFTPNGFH
# hGAT3 L314Q = biological target: T5, hGAT3 L314Q (Homo sapiens, UniProt P48066, L314Q); assay: [3H]GABA uptake at hGAT3 L314Q mutant transiently expressed in tsA201 cells; format: cell-based; conditions: 30 nM [3H]GABA, 3 min
# T5 construct: expressed in transfected cells; host or cells: tsA201 (transient)
# T5 sequence (P48066 whole entry L314Q): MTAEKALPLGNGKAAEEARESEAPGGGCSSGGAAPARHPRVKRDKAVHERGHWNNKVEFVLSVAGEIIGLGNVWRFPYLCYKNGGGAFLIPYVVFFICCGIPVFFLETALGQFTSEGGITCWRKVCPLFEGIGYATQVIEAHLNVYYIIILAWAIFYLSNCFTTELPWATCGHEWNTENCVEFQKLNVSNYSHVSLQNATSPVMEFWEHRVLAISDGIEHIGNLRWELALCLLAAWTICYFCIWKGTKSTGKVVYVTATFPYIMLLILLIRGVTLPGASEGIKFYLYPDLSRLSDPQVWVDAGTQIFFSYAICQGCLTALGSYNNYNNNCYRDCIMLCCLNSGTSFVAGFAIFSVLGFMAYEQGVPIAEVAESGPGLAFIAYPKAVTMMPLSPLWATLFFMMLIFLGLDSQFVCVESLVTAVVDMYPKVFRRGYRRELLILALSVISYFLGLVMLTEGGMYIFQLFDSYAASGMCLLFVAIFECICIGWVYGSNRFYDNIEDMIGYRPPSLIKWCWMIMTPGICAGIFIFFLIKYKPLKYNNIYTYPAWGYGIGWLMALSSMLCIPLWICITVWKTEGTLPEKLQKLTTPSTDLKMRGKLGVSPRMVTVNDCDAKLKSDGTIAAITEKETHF
# Method: as §1, §2, §3
# 5-HT3 = biological target: T6, 5-HT3 (Homo sapiens, UniProt P46098); assay: NIMH PDSP radioligand binding, 5-HT3; conditions: radioligand [3H]LY278584, n=4
# T6 construct: purchased NIMH Psychoactive Drug Screening Program (PDSP)
# T6 sequence (P46098 24-478): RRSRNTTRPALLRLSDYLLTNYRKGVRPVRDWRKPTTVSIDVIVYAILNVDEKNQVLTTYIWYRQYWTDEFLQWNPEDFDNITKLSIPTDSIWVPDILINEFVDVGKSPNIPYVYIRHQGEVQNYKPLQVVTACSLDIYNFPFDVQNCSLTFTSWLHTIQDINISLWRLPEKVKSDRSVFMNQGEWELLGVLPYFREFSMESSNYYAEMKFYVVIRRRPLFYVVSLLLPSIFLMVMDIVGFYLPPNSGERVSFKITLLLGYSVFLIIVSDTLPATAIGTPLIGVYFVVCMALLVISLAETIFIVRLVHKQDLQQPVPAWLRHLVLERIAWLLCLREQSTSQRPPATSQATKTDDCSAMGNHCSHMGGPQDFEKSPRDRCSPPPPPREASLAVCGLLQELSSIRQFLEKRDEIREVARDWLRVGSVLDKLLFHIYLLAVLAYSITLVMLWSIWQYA
# D1 = biological target: T7, D1 (Homo sapiens, UniProt P21728); assay: NIMH PDSP radioligand binding, D1; conditions: radioligand [3H]SCH23390, n=4
# T7 construct: purchased NIMH Psychoactive Drug Screening Program (PDSP)
# T7 sequence (P21728 whole entry): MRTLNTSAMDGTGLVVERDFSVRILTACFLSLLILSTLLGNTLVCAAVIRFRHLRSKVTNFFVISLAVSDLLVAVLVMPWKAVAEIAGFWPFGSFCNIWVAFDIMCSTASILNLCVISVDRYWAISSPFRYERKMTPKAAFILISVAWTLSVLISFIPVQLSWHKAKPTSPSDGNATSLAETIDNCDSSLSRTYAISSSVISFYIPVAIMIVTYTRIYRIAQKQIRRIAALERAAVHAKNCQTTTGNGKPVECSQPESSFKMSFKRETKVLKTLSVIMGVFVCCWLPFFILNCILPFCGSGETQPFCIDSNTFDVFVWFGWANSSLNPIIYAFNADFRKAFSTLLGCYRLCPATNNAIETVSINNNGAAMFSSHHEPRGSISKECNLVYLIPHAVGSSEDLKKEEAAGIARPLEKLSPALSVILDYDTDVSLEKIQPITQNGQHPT
# M4 = biological target: T8, M4 (Homo sapiens, UniProt P08173); assay: NIMH PDSP radioligand binding, M4
# T8 construct: purchased NIMH Psychoactive Drug Screening Program (PDSP)
# T8 sequence (P08173 whole entry): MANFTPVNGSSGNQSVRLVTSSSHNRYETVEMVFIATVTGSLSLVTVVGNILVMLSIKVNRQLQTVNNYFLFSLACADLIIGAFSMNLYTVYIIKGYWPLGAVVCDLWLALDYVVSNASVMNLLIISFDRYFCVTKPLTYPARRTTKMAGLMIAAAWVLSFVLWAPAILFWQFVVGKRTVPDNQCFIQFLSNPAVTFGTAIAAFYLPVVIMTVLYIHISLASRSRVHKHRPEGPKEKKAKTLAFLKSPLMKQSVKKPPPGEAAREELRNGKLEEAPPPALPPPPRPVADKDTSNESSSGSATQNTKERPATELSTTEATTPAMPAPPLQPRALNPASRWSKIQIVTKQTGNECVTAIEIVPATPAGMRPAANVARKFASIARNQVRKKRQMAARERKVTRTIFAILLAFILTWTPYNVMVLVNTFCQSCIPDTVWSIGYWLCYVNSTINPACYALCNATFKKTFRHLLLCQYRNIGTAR
# Sigma1 = Sigma1 (Cavia porcellus, UniProt Q60492); assay: NIMH PDSP radioligand binding, Sigma1; conditions: radioligand [3H]pentazocine(+), n=4
# Sigma1, sequence (Q60492 whole entry): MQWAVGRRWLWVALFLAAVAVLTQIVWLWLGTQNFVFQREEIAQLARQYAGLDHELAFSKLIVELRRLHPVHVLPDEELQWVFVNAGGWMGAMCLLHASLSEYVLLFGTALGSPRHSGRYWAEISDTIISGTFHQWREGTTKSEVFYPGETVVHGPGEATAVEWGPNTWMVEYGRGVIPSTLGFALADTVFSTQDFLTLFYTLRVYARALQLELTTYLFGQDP
# Method: IC50 values in μM (Ki μM)^a. The targets in bold were inhibited by >35% at 10 μM.
# DOR = biological target: T9, DOR (Homo sapiens, UniProt P41143); assay: NIMH PDSP radioligand binding, DOR; conditions: radioligand [3H]DADLE, n=4
# T9 construct: purchased NIMH Psychoactive Drug Screening Program (PDSP)
# T9 sequence (P41143 whole entry): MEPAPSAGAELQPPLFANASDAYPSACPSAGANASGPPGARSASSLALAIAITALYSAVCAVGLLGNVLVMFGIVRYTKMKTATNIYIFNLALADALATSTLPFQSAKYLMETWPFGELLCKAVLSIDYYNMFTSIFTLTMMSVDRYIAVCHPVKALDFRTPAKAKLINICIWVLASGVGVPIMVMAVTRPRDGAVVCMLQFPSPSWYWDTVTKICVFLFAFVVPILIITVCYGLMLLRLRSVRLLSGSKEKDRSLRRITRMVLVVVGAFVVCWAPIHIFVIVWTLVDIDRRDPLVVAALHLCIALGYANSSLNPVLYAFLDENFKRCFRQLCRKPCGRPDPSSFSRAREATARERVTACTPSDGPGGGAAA
# T1 sequence (P14416 whole entry): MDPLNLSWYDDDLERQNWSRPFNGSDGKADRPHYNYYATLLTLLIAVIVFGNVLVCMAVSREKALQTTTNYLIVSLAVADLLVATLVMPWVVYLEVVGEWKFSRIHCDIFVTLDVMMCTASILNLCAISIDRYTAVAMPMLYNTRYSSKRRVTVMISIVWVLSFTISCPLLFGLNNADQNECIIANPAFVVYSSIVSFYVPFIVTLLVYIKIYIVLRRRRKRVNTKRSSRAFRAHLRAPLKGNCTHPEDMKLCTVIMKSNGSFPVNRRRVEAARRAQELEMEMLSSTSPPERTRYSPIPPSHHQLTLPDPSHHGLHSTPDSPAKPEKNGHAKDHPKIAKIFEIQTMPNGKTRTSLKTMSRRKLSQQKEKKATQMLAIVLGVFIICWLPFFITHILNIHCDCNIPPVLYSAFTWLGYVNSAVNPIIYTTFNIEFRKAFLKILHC
compound,measurement,setting,value
"Cc1ccsc1C(=CCCN(C)[C@H]1CCCC[C@H]1C(=O)O)c1sccc1C [SBV2-114, (1R,2S)-2-((4,4-bis(3-methylthiophen-2-yl)but-3-en-yl)(methyl)amino)cyclohexanecarboxylic acid]",inhibition at 10 µM,D2,12.3%
same,inhibition profile and activity at hBGT1 Q299L,hBGT1 Q299L,clear biphasic inhibition profile and no significant altered activity
same,inhibition at 10 µM,D3,27.8%
same,inhibition at 10 µM,"D5; 10 μM, n=4",51.7%
same,Ki,"D5; full curve, printed with 'ave'",10 µM
same,inhibition profile and activity at hGAT3 L314Q,hGAT3 L314Q,activity in hGAT3 L314Q similar to hBGT1
same,inhibition at 10 µM,5-HT3,-3%
same,inhibition at 10 µM,D1,14%
same,inhibition at 10 µM,M4,-5.7%
same,inhibition at 10 µM,Sigma1,55.6%
same,inhibition at 10 µM,DOR,36.6%
